The values that follow come from article PMC7313537 (PLoS ONE, 2020).

Structures are written as SMILES.

Data set [1] concerns the target T1, HER4 (Homo sapiens, UniProt Q15303).
T1 construct: purchased In-house HTRF panel (56 kinases) and PerkinElmer (161-kinase panel)
The experiment in a line: Broader kinase panel (PerkinElmer). Format: biochemical. As to conditions: 100 nM; read-out: Average Percent Inhibition. The text has this: (§1) […]. […] […].

Data set [2] concerns the target T2, HGK (Homo sapiens, UniProt O95819).
T2 construct: purchased In-house HTRF panel (56 kinases) and PerkinElmer (161-kinase panel)
The data set can be described thus: Broader kinase panel (PerkinElmer). It counts as biochemical. The settings on record: 100 nM; read-out: Average Percent Inhibition.
From the text: as §1

In data set [3] the target is T3, HIPK1 (Homo sapiens, UniProt Q86Z02).
T3 construct: purchased In-house HTRF panel (56 kinases) and PerkinElmer (161-kinase panel)
The data set can be described thus: Broader kinase panel (PerkinElmer). Format: biochemical. As to conditions: 100 nM; read-out: Average Percent Inhibition.
From the text: as §1

The target in data set [4] is T4, IRAK4 (Homo sapiens, UniProt Q9NWZ3).
T4 construct: purchased In-house HTRF panel (56 kinases) and PerkinElmer (161-kinase panel)
The experiment in a line: Broader kinase panel (PerkinElmer). It counts as biochemical. As to conditions: 100 nM; read-out: Average Percent Inhibition.
From the text: as §1

Data set [5] concerns the target MAPKAPK2 (Homo sapiens, UniProt P49137). The data set can be described thus: Broader kinase panel (PerkinElmer). Format: biochemical. As to conditions: 100 nM; read-out: Average Percent Inhibition.
From the text: as §1

Data set [6] deals with T5, NEK1 (Homo sapiens, UniProt Q96PY6).
T5 construct: purchased In-house HTRF panel (56 kinases) and PerkinElmer (161-kinase panel)
The data set can be described thus: Broader kinase panel (PerkinElmer). Format: biochemical. The settings on record: 100 nM; read-out: Average Percent Inhibition.
From the text: as §1

The target in data set [7] is T6, NTRK2 (TRKB) (Homo sapiens, UniProt Q16620).
T6 construct: purchased In-house HTRF panel (56 kinases) and PerkinElmer (161-kinase panel)
The experiment in a line: Broader kinase panel (PerkinElmer). As to conditions: 100 nM; read-out: Average Percent Inhibition. It counts as biochemical.
From the text: as §1

The target in data set [8] is T7, PASK (Homo sapiens, UniProt Q96RG2).
T7 construct: purchased In-house HTRF panel (56 kinases) and PerkinElmer (161-kinase panel)
T7 sequence (Q96RG2 whole entry): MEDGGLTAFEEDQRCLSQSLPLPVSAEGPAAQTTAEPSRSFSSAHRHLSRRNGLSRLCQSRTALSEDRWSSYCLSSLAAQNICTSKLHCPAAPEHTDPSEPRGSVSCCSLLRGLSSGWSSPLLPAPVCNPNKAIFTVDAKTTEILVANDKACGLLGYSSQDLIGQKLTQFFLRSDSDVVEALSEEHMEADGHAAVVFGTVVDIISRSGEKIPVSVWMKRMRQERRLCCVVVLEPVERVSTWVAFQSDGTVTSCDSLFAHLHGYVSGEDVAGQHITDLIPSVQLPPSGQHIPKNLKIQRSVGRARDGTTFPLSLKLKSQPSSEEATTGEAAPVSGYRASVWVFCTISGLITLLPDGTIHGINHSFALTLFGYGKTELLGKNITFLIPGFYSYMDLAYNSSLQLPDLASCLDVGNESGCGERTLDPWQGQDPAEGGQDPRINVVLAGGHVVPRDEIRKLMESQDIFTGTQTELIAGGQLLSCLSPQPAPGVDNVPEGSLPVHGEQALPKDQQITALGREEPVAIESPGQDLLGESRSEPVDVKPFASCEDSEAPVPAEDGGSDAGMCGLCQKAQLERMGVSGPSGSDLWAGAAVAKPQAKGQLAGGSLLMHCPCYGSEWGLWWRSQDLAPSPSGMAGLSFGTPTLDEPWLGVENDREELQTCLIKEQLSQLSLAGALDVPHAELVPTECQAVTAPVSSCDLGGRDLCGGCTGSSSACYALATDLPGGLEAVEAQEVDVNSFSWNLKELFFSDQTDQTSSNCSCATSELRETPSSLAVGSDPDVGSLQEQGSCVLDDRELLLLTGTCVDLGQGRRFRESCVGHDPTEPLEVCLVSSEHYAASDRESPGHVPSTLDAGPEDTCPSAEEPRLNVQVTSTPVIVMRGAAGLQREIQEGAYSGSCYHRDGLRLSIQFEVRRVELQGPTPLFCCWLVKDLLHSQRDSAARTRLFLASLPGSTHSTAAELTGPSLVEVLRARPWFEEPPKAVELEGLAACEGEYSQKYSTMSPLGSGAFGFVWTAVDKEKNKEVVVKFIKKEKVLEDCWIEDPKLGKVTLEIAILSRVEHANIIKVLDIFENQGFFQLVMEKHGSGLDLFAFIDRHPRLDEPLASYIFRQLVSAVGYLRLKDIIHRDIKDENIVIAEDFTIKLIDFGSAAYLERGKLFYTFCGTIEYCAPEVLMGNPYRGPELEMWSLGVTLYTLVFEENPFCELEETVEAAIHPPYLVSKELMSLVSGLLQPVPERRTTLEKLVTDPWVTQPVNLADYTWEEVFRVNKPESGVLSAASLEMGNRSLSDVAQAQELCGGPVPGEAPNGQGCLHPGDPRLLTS
The data set can be described thus: Broader kinase panel (PerkinElmer). Format: biochemical. The settings on record: 100 nM; read-out: Average Percent Inhibition.
From the text: as §1

The target in data set [9] is T8, PDGFRA (D842V) (Homo sapiens, UniProt P16234, D842V).
T8 construct: purchased In-house HTRF panel (56 kinases) and PerkinElmer (161-kinase panel)
The data set can be described thus: Broader kinase panel (PerkinElmer). Format: biochemical. As to conditions: 100 nM; read-out: Average Percent Inhibition.
From the text: as §1

The target in data set [10] is T9, PIM2 (Homo sapiens, UniProt Q9P1W9).
T9 construct: purchased In-house HTRF panel (56 kinases) and PerkinElmer (161-kinase panel)
T9 sequence (Q9P1W9 whole entry, species assumed): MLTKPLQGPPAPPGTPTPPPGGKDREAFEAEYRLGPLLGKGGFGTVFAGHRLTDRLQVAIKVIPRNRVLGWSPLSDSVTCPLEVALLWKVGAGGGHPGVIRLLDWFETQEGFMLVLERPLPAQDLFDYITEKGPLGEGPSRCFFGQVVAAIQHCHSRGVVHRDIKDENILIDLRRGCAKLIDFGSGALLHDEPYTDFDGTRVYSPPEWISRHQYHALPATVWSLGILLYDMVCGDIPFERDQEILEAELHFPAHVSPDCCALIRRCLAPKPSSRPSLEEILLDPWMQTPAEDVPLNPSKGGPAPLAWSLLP
The experiment in a line: Broader kinase panel (PerkinElmer). Format: biochemical. As to conditions: 100 nM; read-out: Average Percent Inhibition.
From the text: as §1

For data set [11], the target named is T10, PKC-alpha (Homo sapiens, UniProt P17252).
T10 construct: purchased In-house HTRF panel (56 kinases) and PerkinElmer (161-kinase panel)
The experiment in a line: Broader kinase panel (PerkinElmer). Format: biochemical. As to conditions: 100 nM; read-out: Average Percent Inhibition.
From the text: as §1

The target of data set [12] is T11, PhKg1 (Homo sapiens, UniProt Q16816).
T11 construct: purchased In-house HTRF panel (56 kinases) and PerkinElmer (161-kinase panel)
T11 sequence (Q16816 whole entry): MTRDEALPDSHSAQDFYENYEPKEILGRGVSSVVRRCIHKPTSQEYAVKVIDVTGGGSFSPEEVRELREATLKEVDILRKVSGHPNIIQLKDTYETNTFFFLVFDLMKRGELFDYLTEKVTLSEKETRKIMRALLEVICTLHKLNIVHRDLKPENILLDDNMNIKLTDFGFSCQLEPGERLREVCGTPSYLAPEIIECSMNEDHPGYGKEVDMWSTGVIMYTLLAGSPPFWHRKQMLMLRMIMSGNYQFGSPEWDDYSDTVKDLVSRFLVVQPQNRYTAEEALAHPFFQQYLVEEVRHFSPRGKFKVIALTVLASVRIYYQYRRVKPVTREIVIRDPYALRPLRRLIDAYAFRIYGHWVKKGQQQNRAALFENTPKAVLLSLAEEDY
The experiment in a line: Broader kinase panel (PerkinElmer). The settings on record: 100 nM; read-out: Average Percent Inhibition. Format: biochemical.
From the text: as §1

The target in data set [13] is RET (Homo sapiens, UniProt P07949). The experiment in a line: Broader kinase panel (PerkinElmer). It counts as biochemical. As to conditions: 100 nM; read-out: Average Percent Inhibition.
From the text: as §1

The target of data set [14] is T12, RET Y791F (Homo sapiens, UniProt P07949, Y791F).
T12 construct: purchased In-house HTRF panel (56 kinases) and PerkinElmer (161-kinase panel)
The data set can be described thus: Broader kinase panel (PerkinElmer). Format: biochemical. As to conditions: 100 nM; read-out: Average Percent Inhibition.
From the text: as §1

The target of data set [15] is T13, RSK3 (Homo sapiens, UniProt Q15349).
T13 construct: purchased In-house HTRF panel (56 kinases) and PerkinElmer (161-kinase panel)
The data set can be described thus: Broader kinase panel (PerkinElmer). It counts as biochemical. As to conditions: 100 nM; read-out: Average Percent Inhibition.
From the text: as §1

For data set [16], the target named is T14, SGK1 (Homo sapiens, UniProt O00141).
T14 construct: purchased In-house HTRF panel (56 kinases) and PerkinElmer (161-kinase panel)
T14 sequence (O00141 whole entry, species assumed): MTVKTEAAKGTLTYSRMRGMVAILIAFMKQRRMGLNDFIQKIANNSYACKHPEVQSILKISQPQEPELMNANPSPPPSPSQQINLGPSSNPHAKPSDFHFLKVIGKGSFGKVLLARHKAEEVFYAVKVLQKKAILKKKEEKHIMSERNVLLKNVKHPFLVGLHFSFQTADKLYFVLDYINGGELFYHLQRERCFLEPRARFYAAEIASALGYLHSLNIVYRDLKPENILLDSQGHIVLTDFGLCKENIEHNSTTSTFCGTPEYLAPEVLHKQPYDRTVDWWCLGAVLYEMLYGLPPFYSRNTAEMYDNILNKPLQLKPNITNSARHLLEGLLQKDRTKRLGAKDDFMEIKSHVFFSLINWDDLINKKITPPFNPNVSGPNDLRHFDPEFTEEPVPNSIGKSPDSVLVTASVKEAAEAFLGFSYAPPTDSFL
The experiment in a line: Broader kinase panel (PerkinElmer). It counts as biochemical. The settings on record: 100 nM; read-out: Average Percent Inhibition.
From the text: as §1

Data set [17] deals with T15, TSSK1 (Homo sapiens, UniProt Q9BXA7).
T15 construct: purchased In-house HTRF panel (56 kinases) and PerkinElmer (161-kinase panel)
T15 sequence (Q9BXA7 whole entry): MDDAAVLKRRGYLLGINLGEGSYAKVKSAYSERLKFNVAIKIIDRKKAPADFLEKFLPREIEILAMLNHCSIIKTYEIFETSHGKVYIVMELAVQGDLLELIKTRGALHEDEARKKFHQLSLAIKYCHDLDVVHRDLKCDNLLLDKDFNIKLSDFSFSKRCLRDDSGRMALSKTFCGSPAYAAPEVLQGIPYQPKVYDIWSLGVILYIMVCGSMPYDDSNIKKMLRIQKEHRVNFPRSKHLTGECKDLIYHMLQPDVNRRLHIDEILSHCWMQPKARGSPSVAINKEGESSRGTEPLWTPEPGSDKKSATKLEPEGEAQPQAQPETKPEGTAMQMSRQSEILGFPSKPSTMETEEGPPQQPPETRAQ
The experiment in a line: Broader kinase panel (PerkinElmer). Format: biochemical. As to conditions: 100 nM; read-out: Average Percent Inhibition.
From the text: as §1

Data set [18] has as its target T16, ZIPK (DAPK3) (Homo sapiens, UniProt O43293).
T16 construct: purchased In-house HTRF panel (56 kinases) and PerkinElmer (161-kinase panel)
The data set can be described thus: Broader kinase panel (PerkinElmer). Format: biochemical. The settings on record: 100 nM; read-out: Average Percent Inhibition.
From the text: as §1

Data set [19] deals with T17, p38-beta 2 (Homo sapiens, UniProt Q15759).
T17 construct: purchased In-house HTRF panel (56 kinases) and PerkinElmer (161-kinase panel)
T17 sequence (Q15759 whole entry): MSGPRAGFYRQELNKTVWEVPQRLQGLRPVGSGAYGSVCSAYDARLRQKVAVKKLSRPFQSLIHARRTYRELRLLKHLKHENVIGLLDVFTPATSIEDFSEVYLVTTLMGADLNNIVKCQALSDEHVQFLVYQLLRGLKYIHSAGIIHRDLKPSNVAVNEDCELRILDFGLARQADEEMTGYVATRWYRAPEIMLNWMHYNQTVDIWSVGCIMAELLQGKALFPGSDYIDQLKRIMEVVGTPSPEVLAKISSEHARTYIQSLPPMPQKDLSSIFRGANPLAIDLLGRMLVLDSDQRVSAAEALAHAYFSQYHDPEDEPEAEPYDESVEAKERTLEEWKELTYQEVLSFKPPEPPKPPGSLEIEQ
The data set can be described thus: Broader kinase panel (PerkinElmer). Format: biochemical. The settings on record: 100 nM; read-out: Average Percent Inhibition.
From the text: as §1

Data set [20] deals with T18, p70S6K (Homo sapiens, UniProt P23443).
T18 construct: purchased In-house HTRF panel (56 kinases) and PerkinElmer (161-kinase panel)
T18 sequence (P23443 whole entry): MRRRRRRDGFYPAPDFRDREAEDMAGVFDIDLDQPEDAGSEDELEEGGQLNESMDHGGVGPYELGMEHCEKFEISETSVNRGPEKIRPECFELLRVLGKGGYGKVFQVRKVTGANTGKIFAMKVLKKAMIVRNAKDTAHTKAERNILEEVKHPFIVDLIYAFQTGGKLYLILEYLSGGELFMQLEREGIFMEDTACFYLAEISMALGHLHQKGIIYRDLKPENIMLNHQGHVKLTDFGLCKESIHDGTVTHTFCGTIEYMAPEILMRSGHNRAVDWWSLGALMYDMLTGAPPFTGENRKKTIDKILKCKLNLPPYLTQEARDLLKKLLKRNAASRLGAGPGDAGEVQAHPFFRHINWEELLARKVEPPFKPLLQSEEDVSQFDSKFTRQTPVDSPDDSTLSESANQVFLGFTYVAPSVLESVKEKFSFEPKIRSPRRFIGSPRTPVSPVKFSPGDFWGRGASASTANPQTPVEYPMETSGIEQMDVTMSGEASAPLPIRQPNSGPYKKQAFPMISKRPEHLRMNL
The experiment in a line: Broader kinase panel (PerkinElmer). Format: biochemical. As to conditions: 100 nM; read-out: Average Percent Inhibition.
From the text: as §1

The nature of data set [21]: Tolerability in xenograft studies. It counts as in vivo.

T16 sequence (O43293 whole entry): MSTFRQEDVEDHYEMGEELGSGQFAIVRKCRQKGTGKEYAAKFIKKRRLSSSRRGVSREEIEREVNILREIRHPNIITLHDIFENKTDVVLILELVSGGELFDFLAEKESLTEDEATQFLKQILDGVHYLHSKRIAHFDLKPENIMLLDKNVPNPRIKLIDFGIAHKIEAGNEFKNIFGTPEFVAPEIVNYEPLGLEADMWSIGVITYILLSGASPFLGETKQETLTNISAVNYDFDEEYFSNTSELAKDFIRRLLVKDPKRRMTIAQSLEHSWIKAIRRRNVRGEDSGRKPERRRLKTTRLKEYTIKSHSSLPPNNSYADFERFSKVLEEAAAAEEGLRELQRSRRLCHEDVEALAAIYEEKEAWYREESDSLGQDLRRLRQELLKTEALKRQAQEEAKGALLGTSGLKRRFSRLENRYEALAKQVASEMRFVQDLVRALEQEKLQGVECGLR

Regarding `CCN1C(=O)N(c2c(F)c(OC)cc(OC)c2F)Cc2cnc3[nH]c(CN4CCOCC4)cc3c21` [INCB054828, pemigatinib], the inhibition at 0.1 µM in data set [1] was -15%; in [2], -6%; in data set [3], -1%; in data set [4], 0%; in data set [5], 0%; in data set [6], 1%. Also, the inhibition at 0.1 µM was 1% in data set [7]; -7% in data set [8]; 18% in [9]; -5% in data set [10]; 16% in data set [11]; -2% in data set [12]. In addition, the inhibition at 0.1 µM was 7% in data set [13]; 6% in data set [14]; -3% in data set [15]; 1% in [16]; -3% in data set [17]; 7% in data set [18]. The results for the inhibition at 0.1 µM in data set [19] and in data set [20] were 2% and 8%, respectively. For the same molecule, the overt toxicities entry in [21] (0.3–1 mg/kg once daily, longer than 1 month) is “no overt toxicities were observed”. In addition, the “tolerability (body weight changes, clinical signs)” value in data set [21] (doses up to and including 1 mg/kg, up to 42 days) is “well tolerated”.

What is called inhibition is the relative decrease from the control value, in per cent.
